Data reported in ChEMBL document CHEMBL1126482, “Novel Y2-selective, reduced-size agonists of neuropeptide Y” (Bioorg Med Chem Lett, 1993).
Square brackets hold non-standard residues; d marks the D form. Peptide text beside a SMILES is read from it. Cha = N[C@@H](CC1CCCCC1)C(=O)O

What was measured:
[1] = molecular target: T1, Neuropeptide Y receptor type 1 (Homo sapiens, UniProt P25929); assay: Compound was evaluated for its inhibitory activity against human neuropeptide Y1 receptor expressing SK-N-MC cells; assay type: cell-based
T1 sequence (P25929 whole entry): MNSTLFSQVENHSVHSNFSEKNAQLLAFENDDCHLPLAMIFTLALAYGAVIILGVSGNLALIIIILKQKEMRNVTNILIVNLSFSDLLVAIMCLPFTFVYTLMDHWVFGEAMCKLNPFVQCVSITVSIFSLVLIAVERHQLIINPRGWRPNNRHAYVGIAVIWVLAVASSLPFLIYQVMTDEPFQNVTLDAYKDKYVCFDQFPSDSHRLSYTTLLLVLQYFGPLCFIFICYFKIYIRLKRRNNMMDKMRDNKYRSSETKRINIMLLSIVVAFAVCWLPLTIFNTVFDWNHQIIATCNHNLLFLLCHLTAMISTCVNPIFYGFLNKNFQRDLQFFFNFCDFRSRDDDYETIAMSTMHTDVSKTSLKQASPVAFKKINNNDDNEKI

[2] = molecular target: T2, Neuropeptide Y receptor type 2 (Homo sapiens, UniProt P49146); assay: Compound was evaluated for its inhibitory activity against human neuropeptide Y2 receptor expressing LN319 cells; assay type: cell-based
T2 sequence (P49146 whole entry): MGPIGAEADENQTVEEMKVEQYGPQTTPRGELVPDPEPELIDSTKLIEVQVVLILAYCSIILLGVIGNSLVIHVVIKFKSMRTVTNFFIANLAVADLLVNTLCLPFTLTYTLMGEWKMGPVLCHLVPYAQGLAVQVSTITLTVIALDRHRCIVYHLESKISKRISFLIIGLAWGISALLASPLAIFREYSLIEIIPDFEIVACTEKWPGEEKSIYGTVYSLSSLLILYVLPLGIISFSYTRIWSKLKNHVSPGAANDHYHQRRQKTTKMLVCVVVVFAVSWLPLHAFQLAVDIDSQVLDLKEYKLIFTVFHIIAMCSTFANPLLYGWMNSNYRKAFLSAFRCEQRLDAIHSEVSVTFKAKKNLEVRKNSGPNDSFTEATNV

Rattus norvegicus = species: Rattus norvegicus; assay: Compound was evaluated for its ability to inhibit electrically evoked rat vas deferens contractions; assay type: functional

Row | IC50 ([1]; sk-n-mc) [µM] | IC50 [2] [µM] | IC50 [1] [µM] | IC50 (Rattus norvegicus) [µM] | Compound
1 | 0.039 | 0.005 |  |  | CC[C@H](C)[C@H](NC(=O)[C@H](Cc1ccc(O)cc1)NC(=O)[C@H](Cc1c[nH]cn1)NC(=O)[C@H](CCCN=C(N)N)NC(C)=O)C(=O)N[C@@H](CC(N)=O)C(=O)N[C@@H](CC(C)C)C(=O)N[C@@H](CC1CCCCC1)C(=O)N[C@H](C(=O)N[C@@H](CCCN=C(N)N)C(=O)N[C@@H](CCC(N)=O)C(=O)N[C@@H](CCCN=C(N)N)C(=O)N[C@@H](Cc1ccc(O)cc1)C(=O)O)[C@@H](C)O (Ac-RHYINL[Cha]TRQRY-OH)
2 | 44 | 0.008 |  |  | CC[C@H](C)[C@H](NC(=O)[C@H](Cc1ccc(O)cc1)NC(=O)[C@H](Cc1c[nH]cn1)NC(=O)[C@H](CCCN=C(N)N)NC(C)=O)C(=O)N[C@@H](CC(N)=O)C(=O)N[C@@H](CC1CCCCC1)C(=O)N[C@H](C(=O)N[C@H](C(=O)N[C@@H](CCCN=C(N)N)C(=O)N[C@@H](CCC(N)=O)C(=O)N[C@@H](CCCN=C(N)N)C(=O)N[C@@H](Cc1ccc(O)cc1)C(=O)O)[C@@H](C)O)[C@@H](C)CC (Ac-RHYIN[Cha]ITRQRY-OH)
3 | 26 | 0.003 |  |  | CC[C@H](C)[C@H](NC(=O)[C@H](Cc1ccc(O)cc1)NC(=O)[C@H](Cc1c[nH]cn1)NC(=O)[C@H](CCCN=C(N)N)NC(C)=O)C(=O)N[C@@H](CC(N)=O)C(=O)N[C@@H](CC1CCCCC1)C(=O)N[C@@H](CC1CCCCC1)C(=O)N[C@H](C(=O)N[C@@H](CCCN=C(N)N)C(=O)N[C@@H](CCC(N)=O)C(=O)N[C@@H](CCCN=C(N)N)C(=O)N[C@@H](Cc1ccc(O)cc1)C(=O)O)[C@@H](C)O (Ac-RHYIN[Cha][Cha]TRQRY-OH)
4 |  |  | 35 | 4.5 | Ac-RHYINLITRQRY-OH
